Experimental data taken from publication PMC2747801 (European journal of pharmaceutical sciences : official …, 2009).
Like-named read-outs stand apart in the source and are kept apart here.

How the values were obtained:
[1] = cited from earlier work
[2] = cited from earlier work; remark: listed apart in the source
[3] = cited from earlier work; remark: listed apart in the source
[4] = male, mouse, pH 7.4; for logPS(obs): in vivo
[5] = rat, 5-50uM self-inhibition, training set ref Summerfield et al. 2007
[6] = rat, 5-50uM self-inhibition, test set ref Summerfield et al. 2007
[7] = PAMPA intrinsic permeability, ref Ruell et al. 2004
[8] = rat, Kd (nonsaturable component) ref Smith et al. 1986
[9] = rat, not saturable ref Parepally et al. 2006
[10] = rat, Kd (nonsaturable component) ref Momma et al. 1987
[11] = rat, test set ref Gratton et al. 1997
[12] = rat, PSC833,GF120918 ref Youdim et al. 2004

OCCN1CCN(CCCN2c3ccccc3Sc3ccc(Cl)cc32)CC1 [perphenazine]
logPo^PAMPA: 0.81 | logPS(obs) [1, 5]: −1.27 mL/g/s

OCCOCCN1CCN(C2=Nc3ccccc3Sc3ccccc32)CC1 [quetiapine]
logPo^PAMPA: −1.85 | logPS(obs) [1, 5]: −1.33 mL/g/s

NNCCc1ccccc1 [phenelzine]
logPS(obs) [1, 6]: −2.67 mL/g/s

O=C1Cc2cc(CCN3CCN(c4nsc5ccccc45)CC3)c(Cl)cc2N1 [ziprasidone]
logPS(obs) [1, 6]: −1.73 mL/g/s

COc1cc2nc(N3CCN(C(=O)c4ccco4)CC3)nc(N)c2cc1OC [prazosin]
logPo^PAMPA [2, 7]: −2.58

CN1CCN2c3ncccc3Cc3ccccc3C2C1 (stereo not drawn) [mirtazapine]
logPS(obs) [1, 6]: −1.39 mL/g/s

CC(C)[C@H](N)C(=O)O [L-valine]
logPS(obs) [1, 8]: −4.41 mL/g/s

Oc1ccc2c3c1O[C@H]1c4[nH]c5ccccc5c4C[C@@]4(O)[C@@H](C2)N(CC2CC2)CC[C@]314 [naltrindole]
logPS(obs) ([3]; mouse, in vivo): −1.98 mL/g/s | logPo^PAMPA: −0.94

OCCN1CCN(CCCN2c3ccccc3Sc3ccc(C(F)(F)F)cc32)CC1 [fluphenazine]
logPS(obs) [1, 6]: −1.87 mL/g/s

C[C@]12CC[C@H]3[C@@H](CCC4=CC(=O)CC[C@@]43C)[C@@H]1CC[C@@H]2O [testosterone]
logPo^PAMPA: −2.83

CSc1ccc2c(c1)N(CCC1CCCCN1C)c1ccccc1S2 (stereo not drawn) [thioridazine]
logPo^PAMPA: 1.81 | logPS(obs) [1, 5]: −1.37 mL/g/s

COc1ccc2c(c1)c(CC(=O)O)c(C)n2C(=O)c1ccc(Cl)cc1 [indomethacin]
logPo^PAMPA ([2]; PAMPA intrinsic permeability, ref Avdeef et al. 2004, Ruell et al. 2004): −1.65 | logPS(obs) [1, 9]: −2.19 mL/g/s

CC(C)Cc1ccc(C(C)C(=O)O)cc1 (stereo not drawn) [ibuprofen]
logPo^PAMPA ([2]; PAMPA intrinsic permeability, ref Ruell et al. 2004, Ruell et al. 2003): −2.11

OCCOCCN1CCN(C(c2ccccc2)c2ccc(Cl)cc2)CC1 (stereo not drawn) [hydroxyzine]
logPo^PAMPA: −1.50

Clc1ccc2c(c1)C(N1CCNCC1)=Nc1ccccc1O2 [amoxapine]
logPS(obs) [1, 6]: −1.18 mL/g/s

N[C@@H](Cc1ccccc1)C(=O)O [L-phenylalanine]
logPo^PAMPA: −5.36 | logPS(obs) [1, 10]: −3.74 mL/g/s

CNCCCC12CCC(c3ccccc31)c1ccccc12 [maprotiline]
logPo^PAMPA [2, 7]: 1.99 | logPS(obs) [1, 5]: −1.37 mL/g/s

COc1ccc([C@@H]2Sc3ccccc3N(CCN(C)C)C(=O)[C@@H]2OC(C)=O)cc1 [diltiazem]
logPo^PAMPA ([2]; PAMPA intrinsic permeability, ref Avdeef et al. 2005): −1.33

N[C@@H](Cc1ccc(N(CCCl)CCCl)cc1)C(=O)O [melphalin]
logPS(obs) ([1]; rat, in vivo): −3.28 mL/g/s

CCC1(C)CC(=O)NC1=O (stereo not drawn) [ethosuximide]
logPS(obs) [1, 6]: −2.47 mL/g/s

COc1cc([C@@H]2c3cc4c(cc3[C@@H](O[C@@H]3O[C@@H]5CO[C@@H](C)O[C@H]5[C@H](O)[C@H]3O)[C@H]3COC(=O)[C@H]23)OCO4)cc(OC)c1O [etoposide]
logPS(obs) ([3]; mouse, mdr1a(−/−), footnote x ref Cisternino et al. 2003): −3.91 mL/g/s | logPo^PAMPA: −5.22

CCOC(=O)C1(c2ccccc2)CCN(C)CC1 [meperidine]
logPS(obs) ([3]; mouse, in vivo): −1.28 mL/g/s | logPo^PAMPA: 0.79

CC(C)[C@H](NC(=O)[C@H](CCC(=O)O)NC(=O)[C@H](Cc1ccccc1)NC(=O)[C@@H](C)NC(=O)[C@@H](N)Cc1ccc(O)cc1)C(=O)N[C@H](C(=O)NCC(N)=O)C(C)C [deltorphin II]
logPS(obs) ([3]; mouse, in vivo): −4.36 mL/g/s | logPo^PAMPA: −6.37

CCN(C(C)=O)c1cccc(-c2ccnc3c(C#N)cnn23)c1 [zaleplon]
logPS(obs) ([1]; rat, in vivo): −2.25 mL/g/s

CN1CCCCC1CCN1c2ccccc2Sc2ccc([S+](C)[O-])cc21 (stereo not drawn) [mesoridazine]
logPS(obs) [1, 6]: −1.81 mL/g/s

NC(N)=S [thiourea]
logPS(obs) [1, 11]: −3.36 mL/g/s

Cc1c(N2C[C@@H](N)C3(CC3)C2)c(F)c(N)c2c(=O)c(C(=O)O)cn(C3CC3)c12 [HSR-903]
logPS(obs) ([1]; rat, 20 mM self-inhibition ref Murata et al. 1999): −3.14 mL/g/s

CN(C)CCC=C1c2ccccc2COc2ccccc21 [doxepin]
logPo^PAMPA [2, 7]: 0.44 | logPS(obs) [1, 5]: −1.31 mL/g/s

O=c1n(CCCN2CCN(c3cccc(Cl)c3)CC2)nc2ccccn12 [trazodone]
logPS(obs) [1, 6]: −1.47 mL/g/s

CCCC(C)(COC(N)=O)COC(N)=O [meprobamate]
logPS(obs) [1, 6]: −3.09 mL/g/s

CC(C(=O)O)c1ccc(-c2ccccc2)c(F)c1 (stereo not drawn) [flurbiprofen]
logPo^PAMPA [2, 7]: −1.78 | logPS(obs) [1, 9]: −1.80 mL/g/s

O=c1c(O)c(-c2ccc(O)c(O)c2)oc2cc(O)cc(O)c12 [quercetin]
logPo^PAMPA: −4.77 | logPS(obs) [1, 12]: −3.50 mL/g/s

Cc1ccsc1C(=CCCN1CCC[C@@H](C(=O)O)C1)c1sccc1C [tiagabine]
logPS(obs) [1, 5]: −2.46 mL/g/s

Cc1nc2n(c(=O)c1CCN1CCC(c3noc4cc(F)ccc34)CC1)CCCC2 [risperidone]
logPo^PAMPA: −2.01

Nc1nnc(-c2cccc(Cl)c2Cl)c(N)n1 [lamotrigine]
logPS(obs) [1, 6]: −2.67 mL/g/s

OCCO [ethylene glycol]
logPS(obs) ([1]; rat, in vivo): −2.99 mL/g/s

Nc1c(O)cccc1C(=O)CC(N)C(=O)O (stereo not drawn) [3-hydroxykynurenine]
logPS(obs) ([1]; rat, Kd (nonsaturable component) ref Fukui et al. 1991): −4.49 mL/g/s

OC[C@@H](O)[C@@H](O)[C@H](O)[C@H](O)CO [mannitol]
logPS(obs) [1, 11]: −5.01 mL/g/s

O=C(O)c1ccccc1O [salicylic acid]
logPo^PAMPA ([2]; PAMPA intrinsic permeability, ref Ruell et al. 2003): −2.64

CNS(=O)(=O)Cc1ccc2[nH]cc(CCN(C)C)c2c1 [sumatriptan]
logPo^PAMPA ([2]; PAMPA intrinsic permeability, ref Avdeef 2005): −4.18 | logPS(obs) [1, 5]: −4.60 mL/g/s

OC[C@H]1O[C@@](CO)(O[C@H]2O[C@H](CO)[C@@H](O)[C@H](O)[C@H]2O)[C@@H](O)[C@@H]1O [sucrose]
logPS(obs) [1, 11]: −5.30 mL/g/s

OC[C@@H](O)[C@@H](O)CO [erythritol]
logPS(obs) [1, 11]: −4.57 mL/g/s

O=c1[nH]c2ccccc2n1CCCN1CCC(n2c(=O)[nH]c3cc(Cl)ccc32)CC1 [domperidone]
logPo^PAMPA: −2.78 | logPS(obs) [4]: −2.79 mL/g/s

C[C@]12CC[C@@H]3c4ccc(O)cc4CC[C@H]3[C@@H]1CC[C@@H]2O [estradiol]
logPo^PAMPA: −3.08

Nc1ccccc1C(=O)C[C@H](N)C(=O)O [L-kynurenine]
logPS(obs) [1, 10]: −4.16 mL/g/s

CC[C@]1(O)C[C@@H]2CN(CCc3c([nH]c4ccccc34)[C@@](C(=O)OC)(c3cc4c(cc3OC)N(C)[C@H]3[C@@](O)(C(=O)OC)[C@H](OC(C)=O)[C@]5(CC)C=CCN6CC[C@]43[C@@H]65)C2)C1 [vinblastine]
logPS(obs) ([3]; mouse ref Murakami et al. 2000): −3.32 mL/g/s | logPS(obs) ([3]; mouse, GF120918, footnote v ref Cisternino et al. 2004): −3.25 mL/g/s | logPS(obs) ([3]; mouse, mdr1a(−/−)+GF120918 ref Cisternino et al. 2001): −3.12 mL/g/s | logPo^PAMPA: −0.42 | logPS(obs) ([1]; rat ref Greig et al. 1990): −3.27 mL/g/s | logPS(obs) ([1]; rat, PSC833 ref Cisternino et al. 2003): −3.36 mL/g/s

CC(C)C[C@H](N)C(=O)O [L-leucine]
logPS(obs) [1, 8]: −4.08 mL/g/s

O=C(CCCN1CCC(O)(c2ccc(Cl)cc2)CC1)c1ccc(F)cc1 [haloperidol]
logPo^PAMPA ([2]; PAMPA intrinsic permeability, ref Avdeef et al. 2006): 0.05

NC1(C(=O)O)CCCCC1 [1-aminocyclohexanecarboxylic acid]
logPS(obs) ([1]; rat, Kd (nonsaturable component) ref Aoyagi et al. 1988): −4.00 mL/g/s

CCC(=O)C(CC(C)N(C)C)(c1ccccc1)c1ccccc1 (stereo not drawn) [methadone]
logPo^PAMPA: 0.08

COc1ccc(C(CN(C)C)C2(O)CCCCC2)cc1 (stereo not drawn) [venlafaxine]
logPS(obs) ([1]; rat, in vivo): −1.98 mL/g/s

CCCN1C[C@H](CSC)C[C@@H]2c3cccc4[nH]cc(c34)C[C@H]21 [pergolide]
logPS(obs) [1, 6]: −1.00 mL/g/s

CC(=O)CC(c1ccccc1)c1c(O)c2ccccc2oc1=O (stereo not drawn) [warfarin]
logPS(obs) ([3]; mouse, in vivo): −2.10 mL/g/s | logPS(obs) ([1]; rat, in vivo): −1.99 mL/g/s

CN(C)C(=O)C(CCN1CCC(O)(c2ccc(Cl)cc2)CC1)(c1ccccc1)c1ccccc1 [loperamide]
logPo^PAMPA: 0.15

CN1CCN(CCCN2c3ccccc3Sc3ccc(C(F)(F)F)cc32)CC1 [trifluoperazine]
logPS(obs) [1, 6]: −1.88 mL/g/s

O=C1C[C@@H](c2ccc(O)cc2)Oc2cc(O)cc(O)c21 [naringenin]
logPo^PAMPA: −3.71 | logPS(obs) [1, 12]: −2.60 mL/g/s

CNCC[C@@H](Oc1ccccc1C)c1ccccc1 [atomoxetine]
logPS(obs) [1, 6]: −1.39 mL/g/s

CN(C)CCc1c[nH]c2ccc(Cn3cncn3)cc12 [rizatriptan]
logPS(obs) [1, 6]: −3.76 mL/g/s

COc1cc2c(c(OC)c1OC)-c1ccc(OC)c(=O)cc1[C@@H](NC(C)=O)CC2 [colchicine]
logPo^PAMPA: −5.40 | logPS(obs) ([1]; rat, in vivo): −3.24 mL/g/s

CCC12CCN(CC3(O)CC3)C(Cc3ccc(O)cc31)C2(C)C (stereo not drawn) [bremazocine]
logPS(obs) ([3]; mouse, in vivo): −1.89 mL/g/s | logPo^PAMPA: −1.49

CC(C)c1nc(CN(C)C(=O)N[C@H](C(=O)N[C@@H](Cc2ccccc2)C[C@H](O)[C@H](Cc2ccccc2)NC(=O)OCc2cncs2)C(C)C)cs1 [ritonavir]
logPo^PAMPA: −1.68 | logPS(obs) [4]: −2.59 mL/g/s | Pgp Mutant Kin [4]: 15 mL/100g/min

CN1C[C@H](C(=O)N[C@]2(C)O[C@@]3(O)[C@@H]4CCCN4C(=O)[C@H](Cc4ccccc4)N3C2=O)C=C2c3cccc4[nH]cc(c34)C[C@H]21 [ergotamine]
logPS(obs) ([1]; rat, in vivo): −2.06 mL/g/s

Cc1cc(=O)n(-c2ccccc2)n1C [antipyrine]
logPo^PAMPA ([2]; PAMPA): −5.69

Cc1ncc2n1-c1ccc(Cl)cc1C(c1ccccc1F)=NC2 [midazolam]
logPS(obs) ([1]; rat, in vivo): −1.17 mL/g/s
